Reference: patent publication US12144365B2, “Emulsions and derivatives for infusing hydrophobic active agents into an edible product” (priority 2021, dated 2024)

Assay: Potency loss of actives infused into isomalt based candy at 300° F.
Assay type: physicochemical

Structure (SMILES)	Potency loss %: 300° F. for 5 minutes, Infused by Quillaja extract emulsion [%]	Potency loss %: 300° F. for 5 minutes, Infused by gum acacia emulsion [%]	Potency loss %: 300° F. for 15 minutes, Infused by Quillaja extract emulsion [%]	Potency loss %: 300° F. for 15 minutes, Infused by gum acacia emulsion [%]
C=C(C)[C@@H]1CCC(C)=C[C@H]1c1c(O)cc(CCCCC)cc1O [CBD, cannabidiol, reference compound]	−5	−3	−4	−2
CCCCCc1cc(O)c2c(c1)OC(C)(C)[C@@H]1CCC(C)=C[C@@H]21 [THC, tetrahydrocannabinol, reference compound]	−15	−8	−25	−16
C=C(C)[C@H]1CC=C(C)CC1 [Limonene, limonene]	−37	−12	−69	−17
C=CC(=C)CCC=C(C)C [Myrcene, myrcene]	−26	−10	−51	−15
CCCCCc1cc(O)c2c(c1)OC(C)(C)c1ccc(C)cc1-2 [CBN, cannabinol]	−1	0	−1	0
